Test results from ChEMBL document CHEMBL1201862, “PubChem BioAssay data set” (2004).
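Tested at 5 concentrations; 48 h exposure; 96-well plates; endpoints linearly interpolated, else capped at highest concentration. GI50: concentration for 50% inhibition of growth.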 Calls of active or inactive are those of the source. Rule as the data show it: active = GI50 up to about 1.1 µM and inactive = higher.

Assays:
Assay in all cases: NCI-60 cell line screen, 48 h
UACC-62 = tested on: UACC-62
MDA-MB-435 = tested on: MDA-MB-435
CCRF-CEM = tested on: CCRF-CEM
HOP-92 = tested on: HOP-92
SK-MEL-5 = tested on: SK-MEL-5
SW-620 = tested on: SW-620
A498 = tested on: A498
OVCAR-5 = tested on: OVCAR-5
K562 = tested on: K562
COLO 205 = tested on: COLO 205
HT-29 = tested on: HT-29
SF-295 = tested on: SF-295
SNB-19 = tested on: SNB-19
SK-MEL-2 = tested on: SK-MEL-2
HL-60 = tested on: HL-60
LOX IMVI = tested on: LOX IMVI
KM12 = tested on: KM12
MDA-N = tested on: MDA-N
SNB-75 = tested on: SNB-75

CC(C)C(/N=C/c1ccccc1O)C(=O)O (stereo not given)
GI50 (UACC-62): > 100 µM (inactive) | GI50 (MDA-MB-435): > 100 µM (inactive) | GI50 (CCRF-CEM): > 100 µM (inactive) | GI50 (HOP-92): > 100 µM (inactive) | GI50 (SK-MEL-5): > 100 µM (inactive) | GI50 (SW-620): > 100 µM (inactive) | GI50 (A498): > 100 µM (inactive) | GI50 (OVCAR-5): > 100 µM (inactive) | GI50 (K562): > 100 µM (inactive) | GI50 (COLO 205): > 100 µM (inactive) | GI50 (HT-29): > 100 µM (inactive) | GI50 (SF-295): > 100 µM (inactive) | GI50 (SNB-19): > 100 µM (inactive) | GI50 (SK-MEL-2): 20.6 µM (inactive) | GI50 (HL-60): > 100 µM (inactive) | GI50 (LOX IMVI): > 100 µM (inactive) | GI50 (KM12): > 100 µM (inactive) | GI50 (MDA-N): > 100 µM (inactive)

Cc1ccc(C2SC(=N)Nc3c2c(C)nn3C(=O)c2ccc(Cl)cc2)cc1 (stereo not given)
GI50 (UACC-62): > 10 µM (inactive) | GI50 (SNB-75): > 10 µM (inactive) | GI50 (MDA-MB-435): > 10 µM (inactive) | GI50 (CCRF-CEM): > 10 µM (inactive) | GI50 (HOP-92): > 10 µM (inactive) | GI50 (SK-MEL-5): > 10 µM (inactive) | GI50 (SW-620): > 10 µM (inactive) | GI50 (OVCAR-5): > 10 µM (inactive) | GI50 (K562): > 10 µM (inactive) | GI50 (COLO 205): > 10 µM (inactive) | GI50 (HT-29): > 10 µM (inactive) | GI50 (SF-295): > 10 µM (inactive) | GI50 (SNB-19): > 10 µM (inactive) | GI50 (SK-MEL-2): > 10 µM (inactive) | GI50 (HL-60): > 10 µM (inactive) | GI50 (LOX IMVI): > 10 µM (inactive) | GI50 (KM12): > 10 µM (inactive) | GI50 (MDA-N): > 10 µM (inactive)

Cc1c(C(=O)O)n2c(S)nnc2c2ccccc12
GI50 (UACC-62): > 100 µM (inactive) | GI50 (MDA-MB-435): > 100 µM (inactive) | GI50 (CCRF-CEM): > 100 µM (inactive) | GI50 (HOP-92): > 100 µM (inactive) | GI50 (SK-MEL-5): > 100 µM (inactive) | GI50 (SW-620): > 100 µM (inactive) | GI50 (A498): > 100 µM (inactive) | GI50 (OVCAR-5): > 100 µM (inactive) | GI50 (K562): > 100 µM (inactive) | GI50 (COLO 205): > 100 µM (inactive) | GI50 (HT-29): > 100 µM (inactive) | GI50 (SF-295): > 100 µM (inactive) | GI50 (SNB-19): > 100 µM (inactive) | GI50 (SK-MEL-2): > 100 µM (inactive) | GI50 (HL-60): > 100 µM (inactive) | GI50 (LOX IMVI): > 100 µM (inactive) | GI50 (KM12): > 100 µM (inactive) | GI50 (MDA-N): > 100 µM (inactive)

COc1cc2c(cc1OC)CN1CCCc3cc(OC)c(OC)cc3C1C2 (stereo not given)
GI50 (UACC-62): 29.6 µM (inactive) | GI50 (SNB-75): 13.2 µM (inactive) | GI50 (MDA-MB-435): 18.1 µM (inactive) | GI50 (CCRF-CEM): 48.9 µM (inactive) | GI50 (HOP-92): 21.4 µM (inactive) | GI50 (SK-MEL-5): 36.1 µM (inactive) | GI50 (SW-620): 30.5 µM (inactive) | GI50 (OVCAR-5): 51.3 µM (inactive) | GI50 (K562): 48.3 µM (inactive) | GI50 (COLO 205): 40.9 µM (inactive) | GI50 (HT-29): 19.6 µM (inactive) | GI50 (SF-295): 12.9 µM (inactive) | GI50 (SNB-19): 36.9 µM (inactive) | GI50 (LOX IMVI): 25.4 µM (inactive) | GI50 (KM12): 50 µM (inactive) | GI50 (MDA-N): 17.3 µM (inactive)

O=c1cc(CO)n(CCc2c[nH]c3ccccc23)cc1O
GI50 (UACC-62): 23.9 µM (inactive) | GI50 (MDA-MB-435): > 100 µM (inactive) | GI50 (CCRF-CEM): 29.5 µM (inactive) | GI50 (HOP-92): 30.6 µM (inactive) | GI50 (SK-MEL-5): 47.8 µM (inactive) | GI50 (SW-620): > 100 µM (inactive) | GI50 (OVCAR-5): 81.5 µM (inactive) | GI50 (COLO 205): 55 µM (inactive) | GI50 (HT-29): 34 µM (inactive) | GI50 (SF-295): > 100 µM (inactive) | GI50 (SNB-19): 37.1 µM (inactive) | GI50 (SK-MEL-2): 30.1 µM (inactive) | GI50 (LOX IMVI): > 100 µM (inactive) | GI50 (KM12): 42.1 µM (inactive) | GI50 (MDA-N): 21.3 µM (inactive)

O=C1CSC(=S)N1c1ccc(F)cc1F
GI50 (UACC-62): 70.8 µM (inactive) | GI50 (SNB-75): 42.3 µM (inactive) | GI50 (MDA-MB-435): 35.6 µM (inactive) | GI50 (CCRF-CEM): 25.6 µM (inactive) | GI50 (HOP-92): 30.2 µM (inactive) | GI50 (SK-MEL-5): 25.4 µM (inactive) | GI50 (SW-620): > 100 µM (inactive) | GI50 (A498): 67.9 µM (inactive) | GI50 (COLO 205): 46.2 µM (inactive) | GI50 (HT-29): 90.8 µM (inactive) | GI50 (SF-295): 44.8 µM (inactive) | GI50 (SNB-19): 76.6 µM (inactive) | GI50 (SK-MEL-2): 61.2 µM (inactive) | GI50 (LOX IMVI): 36.5 µM (inactive) | GI50 (KM12): > 100 µM (inactive) | GI50 (MDA-N): 36.3 µM (inactive)

CCOC(=O)/C(=C\Nc1c(C)n(C)n(-c2ccccc2)c1=O)C(=O)c1ccccc1
GI50 (UACC-62): > 100 µM (inactive) | GI50 (MDA-MB-435): > 100 µM (inactive) | GI50 (CCRF-CEM): > 100 µM (inactive) | GI50 (HOP-92): > 100 µM (inactive) | GI50 (SK-MEL-5): > 100 µM (inactive) | GI50 (SW-620): > 100 µM (inactive) | GI50 (A498): > 100 µM (inactive) | GI50 (OVCAR-5): > 100 µM (inactive) | GI50 (K562): > 100 µM (inactive) | GI50 (COLO 205): > 100 µM (inactive) | GI50 (HT-29): > 100 µM (inactive) | GI50 (SF-295): > 100 µM (inactive) | GI50 (SNB-19): > 100 µM (inactive) | GI50 (SK-MEL-2): > 100 µM (inactive) | GI50 (HL-60): > 100 µM (inactive) | GI50 (LOX IMVI): > 100 µM (inactive) | GI50 (KM12): 0.033 µM (active) | GI50 (MDA-N): > 100 µM (inactive)

CCOc1cc(C(c2c(O)c3ccccc3oc2=O)c2c(O)c3ccccc3oc2=O)ccc1OC
GI50 (UACC-62): 18.5 µM (inactive) | GI50 (MDA-MB-435): 15.3 µM (inactive) | GI50 (CCRF-CEM): 22.1 µM (inactive) | GI50 (HOP-92): 16.5 µM (inactive) | GI50 (SK-MEL-5): 23.2 µM (inactive) | GI50 (SW-620): 35.4 µM (inactive) | GI50 (A498): 19.6 µM (inactive) | GI50 (OVCAR-5): 19.6 µM (inactive) | GI50 (K562): 33.4 µM (inactive) | GI50 (COLO 205): 20 µM (inactive) | GI50 (HT-29): 24.2 µM (inactive) | GI50 (SF-295): 19.4 µM (inactive) | GI50 (SNB-19): 23.8 µM (inactive) | GI50 (SK-MEL-2): 20.6 µM (inactive) | GI50 (HL-60): 24.8 µM (inactive) | GI50 (LOX IMVI): 20.6 µM (inactive) | GI50 (KM12): 18.2 µM (inactive) | GI50 (MDA-N): 18.1 µM (inactive)

Cn1c(-c2c(C3=CC(=O)N(c4ccccc4)C3=O)c3ccccc3n2C)cc2ccccc21
GI50 (UACC-62): > 100 µM (inactive) | GI50 (SNB-75): 55.8 µM (inactive) | GI50 (MDA-MB-435): > 100 µM (inactive) | GI50 (CCRF-CEM): 18.9 µM (inactive) | GI50 (HOP-92): > 100 µM (inactive) | GI50 (SK-MEL-5): > 100 µM (inactive) | GI50 (SW-620): > 100 µM (inactive) | GI50 (OVCAR-5): > 100 µM (inactive) | GI50 (K562): 69.2 µM (inactive) | GI50 (COLO 205): > 100 µM (inactive) | GI50 (HT-29): > 100 µM (inactive) | GI50 (SF-295): 34.1 µM (inactive) | GI50 (SNB-19): > 100 µM (inactive) | GI50 (SK-MEL-2): > 100 µM (inactive) | GI50 (HL-60): 45.1 µM (inactive) | GI50 (LOX IMVI): > 100 µM (inactive) | GI50 (KM12): 21.8 µM (inactive) | GI50 (MDA-N): > 100 µM (inactive)

O=C1c2ccccc2C(C2c3ccccc3C(=O)c3cc(Br)ccc32)c2ccc(Br)cc21 (stereo not given)
GI50 (UACC-62): > 100 µM (inactive) | GI50 (SNB-75): > 100 µM (inactive) | GI50 (MDA-MB-435): > 100 µM (inactive) | GI50 (HOP-92): > 100 µM (inactive) | GI50 (SK-MEL-5): > 100 µM (inactive) | GI50 (SW-620): > 100 µM (inactive) | GI50 (A498): > 100 µM (inactive) | GI50 (OVCAR-5): > 100 µM (inactive) | GI50 (K562): 31.8 µM (inactive) | GI50 (COLO 205): > 100 µM (inactive) | GI50 (HT-29): > 100 µM (inactive) | GI50 (SF-295): > 100 µM (inactive) | GI50 (SNB-19): > 100 µM (inactive) | GI50 (HL-60): < 0.01 µM (active) | GI50 (LOX IMVI): > 100 µM (inactive) | GI50 (KM12): > 100 µM (inactive) | GI50 (MDA-N): > 100 µM (inactive)

O=C(N/N=C1\CCc2ccccc21)N/N=C1\CCc2ccccc21
GI50 (UACC-62): > 100 µM (inactive) | GI50 (SNB-75): > 100 µM (inactive) | GI50 (MDA-MB-435): > 100 µM (inactive) | GI50 (CCRF-CEM): > 100 µM (inactive) | GI50 (SK-MEL-5): > 100 µM (inactive) | GI50 (SW-620): > 100 µM (inactive) | GI50 (A498): > 100 µM (inactive) | GI50 (OVCAR-5): > 100 µM (inactive) | GI50 (K562): > 100 µM (inactive) | GI50 (COLO 205): > 100 µM (inactive) | GI50 (HT-29): > 100 µM (inactive) | GI50 (SF-295): > 100 µM (inactive) | GI50 (SNB-19): > 100 µM (inactive) | GI50 (SK-MEL-2): > 100 µM (inactive) | GI50 (HL-60): > 100 µM (inactive) | GI50 (LOX IMVI): > 100 µM (inactive) | GI50 (KM12): > 100 µM (inactive) | GI50 (MDA-N): 11.2 µM (inactive)
